Measured values from US5962525A, “6,7-disubstituted-2-aminotetralines active as immunomodulators and pharmaceutical compositions containing same” (Sigma-Tau, priority 1990, dated 1999).
Several values for one entry are separate records, joined by “and”; a condition that tells them apart may be missing. Identical values can stand only once.

Experiments:
[1] = tested on: splenocytes; experiment: "In vitro-ex vivo" effect on the mytogen (PHA, ConA, LPS)-induced splenocyte proliferation in mice immunodepressed with cyclophosphamide; parameters: species or system mouse (B6 D2 F1); conditions: for S.I. (stimulation index): with respect to the immunodepressed controls; for AUC (area under curve): immunodepressed
Experimental: Assessment of the "in vitro-ex vivo" effect of ST 557, ST 563 ST 564 on the mytogen (PHA, ConA, LPS)-Induced splenocyte proliferation in mice Immunodepressed with cyclotohosphamide
Male B6 D2 F1 mice aged 7-9 weeks (5 mice per group) were used.
The immunosuppressor (cyclophosphamide) was administered i.p. at the dose of 100 mg/kg at day -5. The compounds were administered i.p. (25 mg/kg/day) and per os (100 mg/kg/day) from day -5 to day -1 (spleen excision at day 0).
Splenocyte proliferation was induced by three different mytogens: PHA and ConA active on T-lymphocytes, and LPS active on B-lymphocytes. Each mytogen was tested at three different concentrations (suboptimal, optimal and superoptimal) corresponding to 0.5, 4 and 6 mcg/ml/well for PHA; 0.5, 4 and 8 mcg/ml/well for ConA and 0.5, 150 and 500 mcg/ml/well for LPS.
The experimental procedure is identical to that described in test 4.
The results are expressed as both AUC (see test 4) and S.I. In order to assess the efficacy of the immunosuppressor and the activity of the tested compounds, S.I. has been determined both for the immunodepressed controls (with respect to the normal controls) and for the immunodepressed treated animals (with respect to the immunodepressed controls), respectively. [formula]

[2] = tested on: splenocytes; experiment: "In vitro-ex vivo" effect on the mytogen (PHA, LPS)-induced splenocyte proliferation in mice; parameters: species or system mouse (B6 D2 F1); conditions: 25 mg/kg/day i.p.
Experimental: Assessment of the "in vitro-ex vivo" effect of ST 557, ST 563, ST 608 on the mytogen (PHA, LPS)-induced splenocyte proliferation in mice
Male B6 D2 F1 mice aged 6-10 weeks (4 animals per group) were used.
The compounds were administered i.p. 25 mg/kg/day, from day -5 to -1 (spleen excision at day 0).
PHA (active on T lymphocytes) and LPS (active on B lymphocytes) were used as mytogens. Each mytogen was tested at three different concentrations (suboptimal, optimal, superoptimal): 0.5, 4 and 6 mcg/ml/well and 0.5, 150 and 500 mcg/ml/well, respectively.
The experimental procedure was conducted substantially as described by Kirchner et al., "Splenic suppressor macrophages induced in mice by injection of C. parvum", J. Immunol., 1975, 115: 1212.
In particular, the cell suspensions obtained from the spleens of the animals of the same group were pooled and the cell concentration was adjusted to 5×10^6 cells/ml.
To volumes of 0.1 ml of each sample, equal volumes of the mytogen preparations were added so as to obtain, for each mytogen, the previously indicated final concentrations.
Each sample was prepared in triplicate in U-bottom microtiters. A control, to which 0.1 ml of medium were added instead of the mytogen, was also prepared. The control permits the extent of spontaneous proliferation in the absence of stimulation to be assessed.
The samples were incubated at 37° C. for 48 hours and then they were pulsed with 20 μl ^3 H-TdR (25 μCi/ml).
After 18 hours of further incubation, the cells were collected on filters and counted in a beta-counter.
The results of each sample are expressed by calculating the value of the area under the curve (AUC) obtained by plotting the values of the incorporated radioactivity (in cpm) versus the various concentrations of each mytogen.
In addition to AUC, the stimulation index (SI) is also considered, that is defined as follows. [formula]

[3] = LD50, intravenous; conditions: mouse, in vivo, 0.9% saline
Experimental: LD50 was determined according to Carrol S. Weil's method, Biometrics, pages 249-263 (1952) in male Swiss albino mice weighing 22-24 g.
The various compounds dissolved in 0.9% saline were administered intravenously.

## COc1cc2c(cc1OC)CC(NCC(O)c1ccc(C)cc1)CC2 (stereo not drawn) [ST 563, 2-[(N-2-hydroxy-2-(4-methylphenyl)ethyl)amino]-6,7-dimethoxytetraline]
[1]; ConA, 25 mg/kg/day i.p.
  S.I. (stimulation index): 1.31
  AUC (area under curve): 666 ± 16 ×10^-3
[1]; ConA, 100 mg/kg/day os
  S.I. (stimulation index): 0.84
  AUC (area under curve): 619 ± 12 ×10^-3
[1]; LPS, 25 mg/kg/day i.p.
  S.I. (stimulation index): 4.02
  AUC (area under curve): 3715 ± 200 ×10^-3
[1]; LPS, 100 mg/kg/day os
  S.I. (stimulation index): 0.41
  AUC (area under curve): 3501 ± 360 ×10^-3
[1]; PHA, 25 mg/kg/day i.p.
  S.I. (stimulation index): 2.17
  AUC (area under curve): 217 ± 14 ×10^-3
[2]; LPS
  S.I. (stimulation index): 1.13 and 0.95
[2]; PHA
  AUC (area under curve, incorporated radioactivity vs mytogen concentration): 179 ± 3 ×10^-3 and 256 ± 21 ×10^-3 and 139 ± 5 ×10^-3
  S.I. (stimulation index): 1.09 and 1.28 and 1.12

## COc1cc2c(cc1OC)CC(N(CC1CC1)CC1CC1)CC2 (stereo not drawn) [ST 557, 2-[(N,N-dicyclopropylmethyl)amino]-6,7-dimethoxytetraline]
[1]; ConA, 25 mg/kg/day i.p.
  S.I. (stimulation index): 1.50
  AUC (area under curve): 763 ± 14 ×10^-3
[1]; ConA, 100 mg/kg/day os
  S.I. (stimulation index): 0.92
  AUC (area under curve): 675 ± 21 ×10^-3
[1]; LPS, 25 mg/kg/day i.p.
  S.I. (stimulation index): 5.85
  AUC (area under curve): 6411 ± 214 ×10^-3
[1]; LPS, 100 mg/kg/day os
  S.I. (stimulation index): 0.97
  AUC (area under curve): 4485 ± 433 ×10^-3
[1]; PHA, 25 mg/kg/day i.p.
  S.I. (stimulation index): 1.90
  AUC (area under curve): 191 ± 10 ×10^-3
[3]
  LD50: 28.3 mg/kg
[2]; LPS
  AUC (area under curve, incorporated radioactivity vs mytogen concentration): 10312 ± 1253 ×10^-3 and 18914 ± 389 ×10^-3
  S.I. (stimulation index): 1.22 and 1.15
[2]; PHA
  S.I. (stimulation index): 1.27 and 1.13 and 1.73
